Results on 32 molecules are retold here after patent publication US20060160848A1 (priority 2002, published 2006).

Read-outs that look alike come from different tables or passages of the source. Bounds are passed on as bounds.

For data set [1], the system named is mouse hepatocytes.
In data set [2] the test system is mouse hepatocytes. The data set can be described thus: cells. The settings on record: Hepatocyte, 1 h.
For the next data set, the system named is mouse liver. As to the kind of experiment: Adduct-trapping in mouse liver proteins (Western blot, immunohistochemistry). Type of data set: in vivo. Particulars: 4 hours after 300 μmol/kg i.p.; hydralazine given with allyl alcohol, hydrazone given alone.
The next data set deals with mice. The data set can be described thus: Allyl alcohol hepatotoxicity in mice (plasma SDH, GPT, hepatic GSH).
The next data set has as its system PC-12 cells. The data set can be described thus: Allylamine cytotoxicity in PC-12 cells (MTT). The settings on record: Rattus norvegicus, PC-12, 24 h, read-out: concentration producing 50% cell death.
Data set [3] concerns mouse hepatocytes. As to the kind of experiment: Crotyl alcohol toxicity in isolated mouse hepatocytes (LDH leakage). The settings on record: 500 μM crotyl alcohol, by 3 hours.
In data set [4] the test system is mouse hepatocytes. This is another data set of the same source.
The conditions of data set [5]: pH 7.
A further data set deals with T1, acrolein-modified BSA (Bos taurus, UniProt P02769).
T1 construct: a model protein (BSA, bovine serum albumin); from tissue; host or cells: bovine serum (from the protein's name only)
As to the kind of experiment: Cell-free immunoassay for adduct-breaking on acrolein-pretreated BSA. Particulars: BSA pretreated with 1 mM acrolein 20 min; 50, 250 and 500 μM test compound, 30 min at 37° C. Type of data set: biochemical, bovine.

The mark [6] stands for this setting: read-out: PC50 (concentration producing a 50% decrease in LDH leakage).
Setting [7] is: read-out: PC50 (concentration affording 50% reduction in cell killing).

T1 sequence (P02769 25-607): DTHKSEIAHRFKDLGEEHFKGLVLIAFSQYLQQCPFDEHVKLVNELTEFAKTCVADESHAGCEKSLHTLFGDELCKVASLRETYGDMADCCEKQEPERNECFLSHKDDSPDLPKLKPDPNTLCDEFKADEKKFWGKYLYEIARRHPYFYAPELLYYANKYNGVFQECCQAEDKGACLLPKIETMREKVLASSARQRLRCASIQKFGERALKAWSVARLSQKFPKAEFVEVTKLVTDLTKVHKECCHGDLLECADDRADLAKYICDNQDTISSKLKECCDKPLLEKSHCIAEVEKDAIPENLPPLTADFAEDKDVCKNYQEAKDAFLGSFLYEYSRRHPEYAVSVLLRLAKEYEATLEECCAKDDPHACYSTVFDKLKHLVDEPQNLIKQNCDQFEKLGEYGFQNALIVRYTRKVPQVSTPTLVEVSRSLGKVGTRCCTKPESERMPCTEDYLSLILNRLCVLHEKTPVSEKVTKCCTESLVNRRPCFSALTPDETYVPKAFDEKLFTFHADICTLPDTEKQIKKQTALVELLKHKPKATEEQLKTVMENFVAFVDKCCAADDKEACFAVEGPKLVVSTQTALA

Consider 1,1-dimethylhydrazine, for which the EC50 in the data set on mouse hepatocytes [1] (setting [6]) was over 100 µM.

`c1ccc(NNc2ccccc2)cc1` [1,2-diphenylhydrazine]: the EC50 in the data set with mouse hepatocytes [2] (setting [6]) was determined as 19 ± 2.6 µM.

As for `C=C/C=N/Nc1nncc2ccccc12` [(1E)-acrylaldehyde 1-[1-phthalazinyl]-hydrazone], in the data set with mouse liver, the “immunohistochemical detection of hydralazine-stabilized acrolein adducts in liver sections” value is given as “no immunorecognition was evident”.

Turning to `c1ccc(Nc2ccc(Nc3ccccc3)cc2)cc1` [N,N′-Diphenyl-p- phenylenediamine, N,N′-Diphenyl-p-phenylenediamine], the EC50 in the data set with mouse hepatocytes [2] (setting [6]) stood at 4 ± 1.3 µM.

`CCCCNC` [N-methylbutylamine]: the EC50 in the data set on mouse hepatocytes [2] (setting [6]) came to 6 ± 2.2 µM.

As for `C=CCO` [allyl alcohol], in the data set with mouse hepatocytes [1] (mouse), the cell death induced was 100%. Also, in the data set on mice (90 mg/kg), the fatalities entry is recorded as “no fatalities”. For the same molecule, in the data set with mice (90 mg/kg i.p., 4 hours), the “decrease in hepatic GSH stores” value is listed as 65%, the “elevation of plasma GPT activity over controls” value is reported as 24 fold and the “elevation of plasma SDH activity over controls” value was 30 fold. The mortality in the data set on mice (100 mg/kg) is recorded as 30%.

On to `C=CCN` [allylamine], for which the EC50 in the data set on PC-12 cells is about 45 µM.

In the case of `Nc1ccccc1` [aniline], the EC50 with mouse hepatocytes [2] (setting [6]) stood at 61 ± 20 µM.

Regarding `NCc1ccccc1` [benzylamine], the EC50 in the data set on mouse hepatocytes [2] (setting [6]) was over 100 µM.

In the case of `c1ccc2c(c1)[nH]c1ccccc12` [carbazole], the EC50 in the data set with mouse hepatocytes [2] (setting [6]) was found to be 40 ± 12 µM.

In the case of `C/C=C/CO` [crotyl alcohol], the cell death induced in the data set with mouse hepatocytes [3] was found to be 100%.

For the molecule `NC1CCCCC1` [cyclohexylamine], the EC50 in the data set with mouse hepatocytes [2] (setting [6]) is over 100 µM.

As to `O=P1(N(CCCl)CCCl)NCCCO1` (stereo not drawn) [cyclophosphamide], the “concentration producing complete cell death” value in the data set on mouse hepatocytes [4] (18-hr incubation) is at least 250 µM.

On to `C1CCC(NC2CCCCC2)CC1` [dicyclohexylamine], for which, in the data set with mouse hepatocytes [2] (setting [6]), the EC50 came to 59 ± 11 µM.

In the case of `CC(C)NC(C)C` [diisopropylamine], the EC50 with mouse hepatocytes [2] (setting [6]) came to 66 ± 15 µM.

Consider `c1ccc(Nc2ccccc2)cc1` [diphenylamine], for which the EC50 with mouse hepatocytes [2] (setting [6]) was 3 ± 1.2 µM.

Take `NNc1nccc2ccccc12` [hydrazinoisoquinoline, 1-hydrazinoisoquinoline]: the EC50 in the data set on mouse hepatocytes [2] (setting [6]) came to 6 ± 0.14 µM.

For the molecule `NNc1ccccn1` [hydrazinopyridine, 2-hydrazinopyridine], the EC50 in the data set on mouse hepatocytes [2] (setting [6]) amounted to 40 ± 6.1 µM.

For `NNc1ncnc2ccccc12` [hydrazinoquinazoline, 4-hydrazinoquinazoline], the EC50 in the data set on mouse hepatocytes [2] (setting [6]) was 10 ± 0.05 µM.

With `NNc1ccc2ccccc2n1` [hydrazinoquinoline, 2-hydrazinoquinoline], the EC50 with mouse hepatocytes [2] (setting [6]) is 11 ± 0.44 µM.

As to `NCCCC[C@H](N)C(=O)O` [lysine], in data set [5], the “acrolein removed from solution” value was “approximately 13%”.

With `CON` [methoxyamine], the “adduct-breaking activity (acrolein-lysine adducts in BSA)” value (“adduct-breaking activity” below) at acrolein-modified BSA is recorded as “effects were most evident at the top concentration studied”. In addition, the “acrolein removed from solution” value in [5] is listed as “around 40%”. The EC50 in the data set with mouse hepatocytes [2] (setting [7]) and in the data set on mouse hepatocytes [2] (setting [6]) was 9000 ± 1800 µM in each case.

In the case of `NNc1cccc2ccccc12` [naphthylhydrazine], in the data set with mouse hepatocytes [2] (setting [6]), the EC50 came out at 7 ± 0.19 µM.

Turning to `Nc1ccccc1O` [o-aminophenol], the EC50 in the data set on mouse hepatocytes [2] (setting [6]) worked out at 18 ± 3.2 µM.

On to `Nc1ccc(O)cc1` [p-aminophenol], for which, in the data set on mouse hepatocytes [2] (setting [6]), the EC50 was 20 ± 8.5 µM.

As to `Oc1ccccc1` [phenol], in the data set on mouse hepatocytes [2] (setting [6]), the EC50 was 48 ± 12 µM.

For the molecule `NNc1ccccc1` [phenylhydrazine], in the data set on mouse hepatocytes [2] (setting [6]), the EC50 amounted to 8 ± 0.28 µM.

Turning to `CCCC(C(=O)OCCN(CC)CC)(c1ccccc1)c1ccccc1` [proadifen], the “effect on cyclophosphamide-induced LDH leakage” value in the data set on mouse hepatocytes [4] is “abolished the cyclophosphamide-induced increase in LDH leakage”.

As to `Cc1ncc(CO)c(CN)c1O` [pyridoxamine], the “adduct-breaking activity” value on acrolein-modified BSA was “lacked adduct-breaking potency”. Also, the EC50 with mouse hepatocytes [2] (setting [7]) and in the data set with mouse hepatocytes [2] (setting [6]) was over 10000 µM throughout.

On to `O=C(O)c1ccccc1O` [salicylic acid], for which, in the data set on mouse hepatocytes [2] (setting [6]), the EC50 turned out to be 59 ± 11 µM.

Turning to `Sc1ccccc1` [thiophenol], the EC50 with mouse hepatocytes [2] (setting [6]) was over 100 µM.

Take aminoguanidine: on acrolein-modified BSA, the “adduct-breaking activity” value is “lacked adduct-breaking potency”. Further, in data set [5], the “acrolein removed from solution” value is recorded as “approximately 4%”. Moreover, the EC50 with mouse hepatocytes [1] (setting [7]) and in the data set on mouse hepatocytes [1] (setting [6]) was over 10000 µM throughout.
